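Cells were grown in 96-well plates and exposed to each compound for 48 hours at five concentrations; endpoints were interpolated linearly between bracketing concentrations, or set to the highest concentration if not reached. At the GI50, growth is halved.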 Activity calls are given as the source filed them. No stated cut-off is given here; in the data, active = GI50 up to about 1.1 µM and inactive = higher.
Tests used:
Test in all cases: DTP human tumour cell line panel, 48 h
BT-549 = system: BT-549
CCRF-CEM = system: CCRF-CEM
HCT-15 = system: HCT-15
HOP-62 = system: HOP-62
HOP-92 = system: HOP-92
HT-29 = system: HT-29
K562 = system: K562
M14 = system: M14
MDA-N = system: MDA-N
NCI-H460 = system: NCI-H460
NCI/ADR-RES = system: NCI/ADR-RES
OVCAR-3 = system: OVCAR-3
OVCAR-8 = system: OVCAR-8
RXF 393 = system: RXF 393
SF-268 = system: SF-268
SF-539 = system: SF-539
SK-MEL-28 = system: SK-MEL-28
SK-OV-3 = system: SK-OV-3
SN12C = system: SN12C
T47D = system: T47D

Structure (SMILES)	GI50 (BT-549)	GI50 (CCRF-CEM)	GI50 (HCT-15) [µM]	GI50 (HOP-62)	GI50 (HOP-92)	GI50 (HT-29)	GI50 (K562)	GI50 (M14)	GI50 (MDA-N)	GI50 (NCI-H460)	GI50 (NCI/ADR-RES)	GI50 (OVCAR-3)	GI50 (OVCAR-8)	GI50 (RXF 393)	GI50 (SF-268)	GI50 (SF-539)	GI50 (SK-MEL-28)	GI50 (SK-OV-3)	GI50 (SN12C)	GI50 (T47D)
O=C1OC2C(O)COC2(O)C1(O)C(C[N+](=O)[O-])c1ccc(Cl)cc1 (stereo not given)	6.75 µM (inactive)	3.45 µM (inactive)	6.84	20.6 µM (inactive)	28.7 µM (inactive)	1.99 µM (inactive)	2.96 µM (inactive)	2.58 µM (inactive)	2.76 µM (inactive)	13.7 µM (inactive)	21.9 µM (inactive)	7.19 µM (inactive)	10.1 µM (inactive)	3.29 µM (inactive)	9.79 µM (inactive)	3.97 µM (inactive)	3.52 µM (inactive)	17.1 µM (inactive)	13.7 µM (inactive)	13.8 µM (inactive)
O=c1cnn(C2OC(C(O)CO)C(O)C2O)c(=O)[nH]1 (stereo not given)	> 100 µM (inactive)	> 100 µM (inactive)	> 100	> 100 µM (inactive)	> 100 µM (inactive)	> 100 µM (inactive)	> 100 µM (inactive)	> 100 µM (inactive)	> 100 µM (inactive)	> 100 µM (inactive)	> 100 µM (inactive)	> 100 µM (inactive)	> 100 µM (inactive)	> 100 µM (inactive)	> 100 µM (inactive)	> 100 µM (inactive)	> 100 µM (inactive)	> 100 µM (inactive)	> 100 µM (inactive)	> 100 µM (inactive)
COC(=O)c1cnn2c1ccc1ccccc12	45.8 µM (inactive)	> 100 µM (inactive)	> 100	> 100 µM (inactive)	> 100 µM (inactive)	> 100 µM (inactive)	> 100 µM (inactive)	> 100 µM (inactive)	> 100 µM (inactive)	> 100 µM (inactive)	> 100 µM (inactive)	> 100 µM (inactive)	> 100 µM (inactive)	> 100 µM (inactive)	> 100 µM (inactive)	> 100 µM (inactive)	> 100 µM (inactive)	> 100 µM (inactive)	> 100 µM (inactive)	> 100 µM (inactive)
CCN(CC)CCOCC1CCCN2CCCCC12 (stereo not given)	> 100 µM (inactive)	> 100 µM (inactive)	> 100	> 100 µM (inactive)	> 100 µM (inactive)	> 100 µM (inactive)	> 100 µM (inactive)	> 100 µM (inactive)	> 100 µM (inactive)	> 100 µM (inactive)	> 100 µM (inactive)	> 100 µM (inactive)	> 100 µM (inactive)	> 100 µM (inactive)	> 100 µM (inactive)	> 100 µM (inactive)	> 100 µM (inactive)	> 100 µM (inactive)	> 100 µM (inactive)	> 100 µM (inactive)
O=C(C1OC1c1cccc([N+](=O)[O-])c1)C12CC3CC(CC(C3)C1)C2 (stereo not given)	3.09 µM (inactive)	2.89 µM (inactive)	4.3	10.7 µM (inactive)	10.9 µM (inactive)	3.39 µM (inactive)	2.58 µM (inactive)	8.99 µM (inactive)	3.19 µM (inactive)	4.06 µM (inactive)	3.24 µM (inactive)	3.81 µM (inactive)	2.25 µM (inactive)	5.33 µM (inactive)	2.63 µM (inactive)	8.79 µM (inactive)	12.3 µM (inactive)	16.9 µM (inactive)	4.2 µM (inactive)	11.7 µM (inactive)
CC(=O)NC1C(OCc2ccccc2)OC(CO)C(O)C1OCC(=O)NC(C)C(=O)NC(CCC(=O)Nc1ccc2c(c1)CN1C(=O)c3ccccc3C1=N2)C(N)=O (stereo not given)	> 100 µM (inactive)	> 100 µM (inactive)	> 100	> 100 µM (inactive)	76.7 µM (inactive)	> 100 µM (inactive)	> 100 µM (inactive)	> 100 µM (inactive)	> 100 µM (inactive)	> 100 µM (inactive)	> 100 µM (inactive)	> 100 µM (inactive)	> 100 µM (inactive)	> 100 µM (inactive)	> 100 µM (inactive)	> 100 µM (inactive)	> 100 µM (inactive)	> 100 µM (inactive)	> 100 µM (inactive)	42.8 µM (inactive)
CCOC(=O)Nc1cc2c(c(N)n1)N=C(c1ccccc1)CN2	< 0.01 µM (active)	< 0.01 µM (active)	< 0.01	< 0.01 µM (active)	< 0.01 µM (active)	< 0.01 µM (active)	< 0.01 µM (active)	< 0.01 µM (active)	< 0.01 µM (active)	< 0.01 µM (active)	< 0.0001 µM (active)	< 0.01 µM (active)	< 0.01 µM (active)	< 0.0001 µM (active)	< 0.01 µM (active)	< 0.01 µM (active)	14.5 µM (inactive)	0.0527 µM (active)	< 0.01 µM (active)	37.3 µM (inactive)
